Like-named read-outs stand apart in the source and are kept apart here.
How the values were obtained:
[1] = tested on: T. cruzi nitroreductase enzyme (TcNTR); experiment: Kinetic assay with Trypanosoma cruzi nitroreductase enzyme (NADH oxidation); format: biochemical
Procedure: To determine a potential mechanism of action, nitroazole derivatives 5, 6, 8 and 9 were evaluated as substrates of the T. cruzi nitroreductase enzyme (TcNTR) and compared to BZN, the reference prodrug (Table 2). The enzymatic activity was measured by monitoring the oxidation of NADH, the first substrate of the enzyme, via spectrophotometric assays. […] At a concentration of 25 µM, derivatives 5 and 8 were metabolized at rates 2.3 and 2.6 times higher than that of BZN, respectively. At 50 µM, the compounds presented metabolism rates 1.6 and 3.0 times higher than that of BZN, respectively.
The protocols for expressing, purifying and conducting kinetic analysis with the recombinant TcNTR enzyme were adapted from the methods originally developed by Shane Wilkinson, with certain modifications.
For the kinetics assays, it was prepared a 200 μL solution which included 50 mM Tris-Base at pH 7.5, with a constant concentration of both NADH (50 μM) and the substances 5, 6, 8, 9 or BZN. Specifically, two distinct fixed concentrations (25 and 50 μM) of the substances 5, 6, 8, 9 or BZN were tested. These prepared mixtures were then incubated for 5 min at room temperature. Subsequently, the reaction was initiated by adding NTR to achieve a final concentration of 10 μg/mL. The reaction rates were monitored using a Hitachi U-2900 spectrophotometer, measuring the consumption of the primary substrate, NADH (λ = 340 nm; ε = 6.220 M^−1 cm^−1), over a 2-min interval. The resulting data curves were analyzed through linear regression using OriginPro 2016 software. To evaluate the reaction rate (Kobs) obtained from the 25 and 50 μM concentrations of each substrate, comparisons were made with the reference values for BZN. Measurement errors were calculated using the formula: Error = Z × σ/√n, where ‘Z’ denotes the critical value, ‘σ’ represents the standard deviation and ‘n’ is the number of test measurements, which were performed at least in triplicate.

S. typhimurium TA100 = tested on: S. typhimurium TA100
Procedure: (§1) The compounds were tested in a reverse mutation assay preincubation protocol in the absence and presence of metabolic activation following standard protocols previously proposed by Maron and Ames. The histidine-dependent (his^−) strains TA98 and TA100 of Salmonella typhimurium were inoculated in 10 mL of Oxoid nutrient broth No. 2 containing 25 µg/mL ampicillin and incubated overnight (15–18 h) at 37 ± 1 °C on an orbital shaker (CT-712, Cientec, Belo Horizonte, MG, Brazil) at 150 rpm, obtaining a concentration of 1–2 × 10^9 cells/mL, confirmed by titration in nutrient agar plates. Briefly, 100 µL of stationary growth cultures of each strain were preincubated for 20 min on an orbital shaker (150 rpm) at 37 ± 1 °C, with 500 µL of 0.2 M phosphate buffer pH 7.4, or 500 µL of S9 mix 4% (Molecular Toxicology, Baltimore, MD, USA), and 100 µL of compound dilutions (0–5000 µM) or controls. DMSO 1% was used as a negative control. […] After incubation, 2 mL of top agar (0.7% agar, 0.5% NaCl, 0.05 mM L-histidine and D-biotin) at 45 ± 3 °C was added and gently mixed. The final mixture was poured on glucose minimal agar plates (1.5% agar, 10 g/L MgSO4·7H2O; 100 g/L of C6H8O7·H2O; 500 g/L K2HPO4; 175 g/L Na(NH4)HPO4·4H2O, 2% glucose) and incubated for 72 h at 37 ± 1 °C. The results were expressed as the mean of revertant colonies (His^+) per plate, standard deviation (SD) and mutagenicity induction fold (IF), calculated as the ratio between the number of colonies in the test group and the number of colonies in the negative control group. Mutagenic potency was calculated as the slope of the linear portion of the concentration–response function and expressed as revertants/µM. All assays were performed in triplicate and repeated at least two times. Statistical analyses were carried out in GraphPad Prism software (version 5.00, GraphPad Software, Boston, MA, USA).

S. typhimurium TA98 = experiment: Salmonella reverse mutation assay (Ames test, preincubation), TA98
Procedure: as §1

O=[N+]([O-])c1ncn(CC(O)c2ccc(F)cc2F)n1 (stereo not shown) [Compound 8, 1-(2,4-Difluorophenyl)-2-(3-nitro-1H-1,2,4-triazol-1-yl)ethanol]
IF (induction factor) (S. typhimurium TA1535; TA1535, +S9, 0.5 µM): 1.0 | revertant His+ colonies, mean ± SD (S. typhimurium TA1535; TA1535, +S9, 0.5 µM): 11 ± 1 | IF (induction factor) (S. typhimurium TA1535; TA1535, +S9, 5 µM): 1.1 | revertant His+ colonies, mean ± SD (S. typhimurium TA1535; TA1535, +S9, 5 µM): 12 ± 4 | IF (induction factor) (S. typhimurium TA1535; TA1535, +S9, 50 µM): 1.3 | revertant His+ colonies, mean ± SD (S. typhimurium TA1535; TA1535, +S9, 50 µM): 14 ± 4 | IF (induction factor) (S. typhimurium TA1535; TA1535, +S9, 500 µM): 1.4 | revertant His+ colonies, mean ± SD (S. typhimurium TA1535; TA1535, +S9, 500 µM): 15 ± 5 | IF (induction factor) (S. typhimurium TA1535; TA1535, +S9, 5000 µM): 1.4 | revertant His+ colonies, mean ± SD (S. typhimurium TA1535; TA1535, +S9, 5000 µM): 15 ± 3 | Mutagenicity in the Ames test (verdict) (S. typhimurium TA1535; TA1535, absence or presence of metabolic activation): not mutagenic | IF (induction factor) (S. typhimurium TA1535; TA1535, −S9, 0.5 µM): 1.0 | revertant His+ colonies, mean ± SD (S. typhimurium TA1535; TA1535, −S9, 0.5 µM): 21 ± 2 | IF (induction factor) (S. typhimurium TA1535; TA1535, −S9, 5 µM): 1.0 | revertant His+ colonies, mean ± SD (S. typhimurium TA1535; TA1535, −S9, 5 µM): 26 ± 3 | IF (induction factor) (S. typhimurium TA1535; TA1535, −S9, 50 µM): 1.0 | revertant His+ colonies, mean ± SD (S. typhimurium TA1535; TA1535, −S9, 50 µM): 23 ± 6 | revertant His+ colonies, mean ± SD (S. typhimurium TA1535; TA1535, −S9, 500 µM): Cytotoxic | consumption rate by TcNTR, times higher than that of 9 ([1]; 25 µM): 3.4 | Kobs Deriv./Kobs BZN 25 µM ([1]; 25 µM derivative, ratio of mean Kobs to BZN): 2.6 | consumption rate by TcNTR, times higher than that of 5 ([1]; 50 µM): 1.8 | Kobs Deriv./Kobs BZN 50 µM ([1]; 50 µM derivative, ratio of mean Kobs to BZN): 3.0 | IF (induction factor) (S. typhimurium TA100; TA100, +S9, 0.5 µM): 1.2 | revertant His+ colonies, mean ± SD (S. typhimurium TA100; TA100, +S9, 0.5 µM): 129 ± 21 | IF (induction factor) (S. typhimurium TA100; TA100, +S9, 5 µM): 1.2 | revertant His+ colonies, mean ± SD (S. typhimurium TA100; TA100, +S9, 5 µM): 128 ± 6 | IF (induction factor) (S. typhimurium TA100; TA100, +S9, 50 µM): 1.4 | revertant His+ colonies, mean ± SD (S. typhimurium TA100; TA100, +S9, 50 µM): 150 ± 14 | IF (induction factor) (S. typhimurium TA100; TA100, +S9, 500 µM): 1.4 | revertant His+ colonies, mean ± SD (S. typhimurium TA100; TA100, +S9, 500 µM): 145 ± 8 | IF (induction factor) (S. typhimurium TA100; TA100, +S9, 5000 µM): 1.7 | revertant His+ colonies, mean ± SD (S. typhimurium TA100; TA100, +S9, 5000 µM): 183 ± 9 | Mutagenicity in the Ames test (verdict) (S. typhimurium TA100; TA100, absence or presence of metabolic activation): not mutagenic | IF (induction factor) (S. typhimurium TA100; TA100, −S9, 0.5 µM): 1.1 | revertant His+ colonies, mean ± SD (S. typhimurium TA100; TA100, −S9, 0.5 µM): 77 ± 5 | IF (induction factor) (S. typhimurium TA100; TA100, −S9, 5 µM): 1.1 | revertant His+ colonies, mean ± SD (S. typhimurium TA100; TA100, −S9, 5 µM): 77 ± 15 | IF (induction factor) (S. typhimurium TA100; TA100, −S9, 50 µM): 1.1 | revertant His+ colonies, mean ± SD (S. typhimurium TA100; TA100, −S9, 50 µM): 77 ± 13 | IF (induction factor) (S. typhimurium TA100; TA100, −S9, 500 µM): 1.3 | revertant His+ colonies, mean ± SD (S. typhimurium TA100; TA100, −S9, 500 µM): 91 ± 8 | IF (induction factor) (S. typhimurium TA100; TA100, −S9, 5000 µM): 1.5 | revertant His+ colonies, mean ± SD (S. typhimurium TA100; TA100, −S9, 5000 µM): 108 ± 10 | IF (induction factor) (S. typhimurium TA98; TA98, +S9, 0.5 µM): 1.0 | revertant His+ colonies, mean ± SD (S. typhimurium TA98; TA98, +S9, 0.5 µM): 24 ± 2 | IF (induction factor) (S. typhimurium TA98; TA98, +S9, 5 µM): 1.0 | revertant His+ colonies, mean ± SD (S. typhimurium TA98; TA98, +S9, 5 µM): 24 ± 7 | IF (induction factor) (S. typhimurium TA98; TA98, +S9, 50 µM): 1.0 | revertant His+ colonies, mean ± SD (S. typhimurium TA98; TA98, +S9, 50 µM): 23 ± 3 | IF (induction factor) (S. typhimurium TA98; TA98, +S9, 500 µM): 1.0 | revertant His+ colonies, mean ± SD (S. typhimurium TA98; TA98, +S9, 500 µM): 24 ± 5 | IF (induction factor) (S. typhimurium TA98; TA98, +S9, 5000 µM): 1.1 | revertant His+ colonies, mean ± SD (S. typhimurium TA98; TA98, +S9, 5000 µM): 26 ± 1 | Mutagenicity in the Ames test (verdict) (S. typhimurium TA98; TA98, absence or presence of metabolic activation): not mutagenic | IF (induction factor) (S. typhimurium TA98; TA98, −S9, 0.5 µM): 0.9 | revertant His+ colonies, mean ± SD (S. typhimurium TA98; TA98, −S9, 0.5 µM): 23 ± 4 | IF (induction factor) (S. typhimurium TA98; TA98, −S9, 5 µM): 0.9 | revertant His+ colonies, mean ± SD (S. typhimurium TA98; TA98, −S9, 5 µM): 23 ± 1 | IF (induction factor) (S. typhimurium TA98; TA98, −S9, 50 µM): 1.1 | revertant His+ colonies, mean ± SD (S. typhimurium TA98; TA98, −S9, 50 µM): 30 ± 3 | revertant His+ colonies, mean ± SD (S. typhimurium TA98; TA98, −S9, 500 µM): Cytotoxic
